In patent EP2265599B1, “CRYSTAL FORM OF PHENYLAMINOPYRIMIDINE DERIVATIVE” (Natco Pharma Limited, priority 2008, dated 2009):

Legend:
[1] = tested on: Baf3T315I; assay: In vivo anti-leukemic activity, blast cell count in blood smears, Baf3T315I implanted nude mice; conditions: Imatinib 10mg/kg, AN019 20mg/kg, AN024 20mg/kg, oral gavage or ip from day 15; up to day 42
Text: (§1) Blood smears were obtained via the tail vein or via the femoral vein every 6th day and blast cells counted and graphically represented.
(§2) Abdominal swelling and decrease in activity was monitored daily, blood smear taken via the tail vein or the femoral vein every 6th day and H&E stained as per standard protocols. 42 days after implantation, mice were sacrificed and spleens harvested.
(§3) Nude mice were intraperitoneally implanted with Baf3 mutant cells (wt, T315I, M351T or E255K). […] Blood was drawn from the femoral vein or tail vein every 6th day and blast cell count determined and graphically represented.

[2] = tested on: K562 cells; assay: Anti-CML activity in nude mice implanted with K562 cells (leukemia growth index, LGI)
Method: To determine anti-CML activity of compounds of this invention K562 cells were obtained from ATCC and nude mice were implanted with these cells. […] Drug treatment was initiated 15 days post implantation and for 48 days with daily ip injections of 10mg/kg. Blood was drawn from the tail vein every 6th day, percent K562 cells determined and percent leukemia growth index (LGI) calculated.
Nude mice (nu/nu) were implanted with K562 cells (1x10^6) via tail vein. Four mice were used per group and divided into 4 groups. Three groups were implanted with K562 cells and one group was used as normal controls. Group 2 was inoculated with K562 cells and served as untreated positive controls.
Mice were injected via an intraperitoneal route at the above-mentioned dosage. Average weight of nude mice was determined to be 30±3g, and the dosage per mouse was calculated to be 300±30µg/mouse. Three micro liters of the stock solutions was diluted to 100µl with sterile water just prior to ip injections. Ip injections were carried out daily from day 15 post implantation to day 48 with a total of 33 injections.
Leukemia growth index was determined using the formula LGI (%) = (Vc-Vt)/Vc x 100%. Vc is mean blast cell number (K562) per ml of blood in control animals at a certain time of measurement, and Vt is mean blast cell number per ml of blood in test animals at a certain time of measurement. […]

[3] = tested on: 5310 cells; assay: In vitro angiogenic assay (conditioned media on human dermal endothelial cells), 5310; type: cell-based; conditions: control conditions and after radiation
Method: (§4) The in vitro angiogenesis of 4910, 5310 and U87 glioma cells and MDAMB231 and ZR71 breast cancer cells in the presence of specified concentrations of compounds were determined as follows, cells (2x10^4/well) were seeded in 8-well chamber slides and were treated with various concentrations of test compounds. After a 24 h incubation period, the conditioned media was removed and added to a 4x 10^4 human dermal endothelial cell (monolayer in 8-well chamber slides) and the human dermal endothelial cells were allowed to grow for 72 h. Cells were then fixed in 3.7% formaldehyde and stained with H&E and photographed.

[4] = tested on: K5621uc cells; assay: Drug temporal penetrance (Tp) after stopping drug treatment; type: in vivo, nude mice; conditions: AN019 20mg/kg, AN024 20mg/kg, Imatinib 10mg/kg, daily ip from day 15, stopped on day 35, imaged till day 45
Method: The temporal penetrance was calculated applying the following equation, Tp=. (((P)/(n))a -((P)/(n))ter)/(((P)/(n))a -((P)/(n))b) [formula]
Where: • P=photon counts at day 'a', day 'ter', or day 'b' where 'a' is the day when drug treatment was stopped and 'ter' is the day when the experiment was terminated and 'b' is the day where P is minimum after day a but before day 'ter'. • n=number of animals alive when P was measured.
The animals were imaged at 6 day intervals post transplantation. […] Drug treatment was stopped on day 35 and animals were imaged till day 45, and calculated as described in methods.

[5] = tested on: ZR-71; assay: Matrigel invasion assay (modified Boyden chamber), ZR-71; type: cell-based; conditions: cells treated 48 h
Method: (§5) The in vitro invasiveness of 4910, 5310 and U87 glioma cells and MDAMB231 and ZR71 breast cancer cells in the presence of specified concentrations of compounds were assessed using a modified Boyden chamber assay. Cells were treated with these compounds for 48 h. 1x10^6 cells were suspended in 600µl of serum-free medium supplemented with 0.2% BSA and placed in the upper compartment of the transwell chambers (Coming Costar Fischer Scientific Cat #07-200-158, Pittsburgh PA) coated with Matrigel (0.7 mg/ml). The lower compartment of the chamber was filled with 200 µl of serum medium and the cells were allowed to migrate for 24 h. After incubation, the cells were fixed and stained with Hema-3 and quantified as previously described (Mohanam et al. 1993). The migrated cells were imaged microscopically to determine the reduction in invasiveness induced by the compounds of this invention.
(§6) The in vitro invasiveness of 4910, 5310 and U87 glioma cells and MDAMB231 and ZR71 breast cancer cells in the presence of specified concentrations of compounds were assessed using a modified Boyden chamber assay. Cells were treated with these compounds for 48 h.

[6] = tested on: MDA-MB-231; assay: Matrigel invasion assay (modified Boyden chamber), MDA-MB-231; type: cell-based; conditions: cells treated 48 h
Method: as §5, §6

[7] = tested on: ZR-71 cells; assay: In vitro angiogenic assay (conditioned media on human dermal endothelial cells), ZR-71; type: cell-based
Method: as §4

[8] = tested on: U87; assay: Matrigel invasion assay (modified Boyden chamber), U87; type: cell-based; conditions: cells treated 48 h
Method: as §5, §6

[9] = tested on: MDA-MB-231 cells; assay: In vitro angiogenic assay (conditioned media on human dermal endothelial cells), MDA-MB-231; type: cell-based; conditions: control condition and after radiation
Method: as §4

[10] = tested on: K562 luc human leukemia cells; assay: Low dose oral treatment of nude mice implanted with K562 luc cells (luciferase expression); type: in vivo; conditions: oral administration
Method: Nude mice (nu/nu) were implanted with K562 cells (1x106) normal/luc via tail vein. Five mice were used per group and divided into 24 groups + 2 control. All groups were implanted with K562 normal/luc cells. Of the 24 groups, 12 were used for luciferase studies whereas the other 12 were used for blood smear count studies.
Drugs were administered by oral gavage (2% gum acacia and 2% SLS in an aqueous suspension).

[11] = tested on: 4910, 5310 and U87 glioma cells and MDAMB231 and ZR71 breast cancer cells; assay: Western blot analysis for pAKT and pERK (cell line not specified); type: cell-based; conditions: with and without radiation
Method: (§7) Western blot analysis of 4910, 5310 and U87 glioma cells and MDAMB231 and ZR71 breast cancer cells in the presence of specified concentrations of compounds were assessed as per standard protocols. Cells were treated with AN019, AN024 or Temozolomide at the specified concentrations. 24h after treatment, cells were collected and cell lysates extracted. Equal quantities of proteins were fractionated by SDS-PAGE. The fractionated proteins were blotted on to nylon membranes and immunoprobed for AKT, ERK and Pi3k. Breast cancer cell protein isolates were additionally immunoprobed for EGFR, ErbB1, ErbB2 and ErbB3.

[12] = tested on: Baf3E255K; assay: In vivo anti-leukemic activity, blast cell count in blood smears, Baf3E255K implanted nude mice; conditions: Imatinib 10mg/kg, AN019 20mg/kg, AN024 20mg/kg, oral gavage or ip from day 15; up to day 42
Text: as §1, §2, §3

[13] = tested on: 4910 human glioma xenograft cells; assay: Glioma radiation study, intracranially implanted 4910 cells; type: in vivo, Nude mice
Method: Nude mice were intracranially implanted with 4910 human glioma xenograft cells (1x10^6 cells). Ten days after implantation mice were treated with AN019, AN024 or temozolomide with or without radiation (5Gy/week). The experiment was terminated at day 40 post implantation.

[14] = tested on: ZR71; assay: Western blot analysis for AKT, ERK and Pi3k, ZR71; type: cell-based
Method: as §7

[15] = tested on: K562 luciferase expressing cells; assay: Leukemic survival study, K562 luciferase expressing cells implanted intraperitoneally; type: in vivo, nude mice
Text: K562 luciferase expressing cells were implanted intraperitoneally into nude mice; the mice were scanned using the xenogeny IVIS image station after ip injections of luciferin does determine implantations. Drug treatment was started as in previous studies day 15 after implantation. The animals were given treatment till day 42, after which drug treatment was stopped and survival of the animals determined as per the animal care regulations. […] Drug treatment was withdrawn on day 42 post implantation and survival of animals determined.

[16] = tested on: 5310 cells; assay: Western blot analysis for AKT, ERK and Pi3k, 5310; type: cell-based
Method: as §7

SMILES: Cc1ccc(NC(=O)c2cc(C(F)(F)F)cc(C(F)(F)F)c2)cc1Nc1nccc(-c2cccnc2)n1 [AN019, (3,5-bis trifluoromethyl)-N-[4-methyl-3-(4-pyridin-3yl-pyrimidin-2ylamino)-phenyl]-benzamide]
- blast cell count in blood smears [1]: significant decrease in blast cell count
- physiological, phenotypic or behavioral abnormality ([2]; K562 implanted nude mice, ip 10mg/kg): no abnormal physiological, phenotypic or behavioral abnormality
- LGI after initiation of drug treatment (time course) ([2]; daily ip injections of 10mg/kg from day 15, blood drawn every 6th day): steady decline in LGI
- inhibition of angiogenesis [3]: inhibition of angiogenesis was greater in control conditions than after radiation treatment
- Tp (temporal penetrance) [4]: 2.0
- +Radiation % Invasion ([5]; ZR-71, with radiation): 19%
- -Radiation % Invasion ([5]; ZR-71, without radiation): 33%
- +Radiation % Invasion ([6]; MDA-MB-231, with radiation): 15%
- -Radiation % Invasion ([6]; MDA-MB-231, without radiation): 45%
- inhibition of angiogenesis [7]: complete inhibition of angiogenesis
- +Radiation % Invasion ([8]; U87, with radiation): 18%
- -Radiation % Invasion ([8]; U87, without radiation): 18%
- inhibition of angiogenesis [9]: a slight inhibition was observed in both control and radiation treatments
- luciferase expression ([10]; 1mg/kg): did not induce a decrease in luciferase expression
- luciferase expression ([10]; 5mg/kg): caused fixation of leukemia cells at constant expression levels
- luciferase expression ([10]; 10mg/kg): caused a decrease in luciferase expression
- luciferase expression ([10]; 20mg/kg): caused a decrease in luciferase expression
- levels of pERK [11]: reduced significantly
- blast cell count in blood smears [12]: significant decrease in blast cell count
- intracranial tumours (size, appearance) ([13]; with radiation (5Gy/week)): tumor size was significantly reduced
- animals cured / no observable intracranial tumor ([13]; with radiation (5Gy/week), terminated at day 40): 6 of 10 animals
- intracranial tumours (size, appearance) ([13]; without radiation): showed tumours similar to AN024 treated animals
- animals cured / complete absence of intracranial tumours ([13]; without radiation, treatment from ten days after implantation, terminated at day 40): 6 of 10 animals
- PI3k levels ([14]; ZR71 (cell line by context), with and without radiation): absent in AN019 treatments both with and without radiation
- AKT levels ([14]; ZR71, unirradiated and after radiation): decrease in AKT levels, which was enhanced after radiation
- curative effect after withdrawal of drug treatment (animals cured at day 58) ([15]; drug treatment stopped at day 42, based on luminescence (Fig. 20)): continued to show curative effect
- Blast cell count from blood smears after withdrawal of drug treatment ([15]; drug treatment withdrawn on day 42 (Fig. 21)): showed effectiveness after withdrawal of drug treatment
- mortality ([15]; treatment from day 15 till day 42, then withdrawn, AN024 death determined to be other than leukemia): did not show any mortality
- animals showing no signs of leukemia / complete absence of leukemic symptoms ([15]; treatment from day 15 till day 42, then withdrawn, AN024 on day 55): 7 of the 10 animals
- AKT expression levels [16]: decrease in AKT expression levels
- Levels of PI3k ([16]; without and after radiation): almost undetectable in AN019 treated cells without radiation but reappeared after radiation treatment
